Source: US20180035670A1, “ACTIVE COMPOUND COMBINATIONS” (BAYER CROPSCIENCE AKTIENGESELLSCHAFT, priority 2015, published 2018)
Where “and” joins values, the source holds several entries; their conditions need not be identical. Equal entries are not always repeated. Where two headings read alike, the source gives them in different places.

Assays:
Phakopsora pachyrhizi = assay: in vivo preventive test on Phakopsora test (soybeans); settings: 7 days after inoculation; for pest or weed control at 0.5 ppm: 0.5 ppm a.i.; for pest or weed control at 1 ppm: 1 ppm a.i.; for pest or weed control at 0.25 ppm: 0.25 ppm a.i.
Botrytis cinerea = assay: in vivo preventive test on Botrytis test (beans); settings: 2 days after inoculation
Description: After the spray coating has dried on, 2 small pieces of agar covered with growth of Botrytis cinerea are placed on each leaf.
The inoculated plants are placed in a darkened chamber at 20° C. and a relative atmospheric humidity of 100%.
2 days after the inoculation, the size of the lesions on the leaves is evaluated.

Venturia inaequalis = assay: in vivo preventive test on Venturia test (apples); settings: for pest or weed control at 10 ppm: read-out: Efficacy in % found, 10 ppm a.i., apples, 10 days after inoculation; for Efficacy in % found: apples, 10 days after inoculation; for pest or weed control at 0.25 ppm: read-out: Efficacy in % found, 0.25 ppm a.i., apples, 10 days after inoculation; for pest or weed control at 0.5 ppm: read-out: Efficacy in % found, 0.5 ppm a.i., apples, 10 days after inoculation; for pest or weed control at 2 ppm: read-out: Efficacy in % found, 2 ppm a.i., apples, 10 days after inoculation; for pest or weed control at 1 ppm: read-out: Efficacy in % found, 1 ppm a.i., apples, 10 days after inoculation
Description: After the spray coating has dried on, the plants are inoculated with an aqueous conidia suspension of the causal agent of apple scab (Venturia inaequalis) and then remain for 1 day in an incubation cabinet at approximately 20° C. and a relative atmospheric humidity of 100%. The plants are then placed in a greenhouse at approximately 21° C. and a relative atmospheric humidity of approximately 90%.
The test is evaluated 10 days after the inoculation.

Alternaria solani = assay: in vivo preventive test on Alternaria test (tomatoes); settings: 3 days after inoculation
Description: After the spray coating has dried on, the plants are inoculated with an aqueous spore suspension of Alternaria solani. The plants are then placed in an incubation cabinet at approximately 20° C. and a relative atmospheric humidity of 100%.
The test is evaluated 3 days after the inoculation.

Phytophthora infestans = format: in vivo; settings: tomatoes, 3 days after inoculation
Sphaerotheca fuliginea = assay: in vivo preventive test on Sphaerotheca test (cucumbers); settings: 7 days after inoculation
Description: After the spray coating has dried on, the plants are inoculated with an aqueous spore suspension of Sphaerotheca fuliginea. The plants are then placed in a greenhouse at approximately 23° C. and a relative atmospheric humidity of approximately 70%.
The test is evaluated 7 days after the inoculation.

[1] = Phakopsora pachyrhizi, 168 h, read-out: Efficacy in % found

COC(=O)Nc1nc2ccccc2[nH]1 [4.002, carbendazim, reference compound]
pest or weed control at 1.25 ppm (Phakopsora pachyrhizi; Phakopsora pachyrhizi, 168 h, 1.25 ppm a.i., read-out: Efficacy in % found): 0%
pest or weed control at 2.5 ppm (Phakopsora pachyrhizi; Phakopsora pachyrhizi, 168 h, 2.5 ppm a.i., read-out: Efficacy in % found): 0%
Efficacy in % found (Botrytis cinerea; 5 ppm a.i.): 0%
pest or weed control at 5 ppm (Venturia inaequalis; Venturia inaequalis, 240 h, read-out: Efficacy in % found, 5 ppm a.i., apples, 10 days after inoculation): 8%
pest or weed control at 10 ppm (Venturia inaequalis; Venturia inaequalis, 240 h): 21%
Efficacy in % found (Alternaria solani; 10 ppm a.i.): 0%

mancozeb [5.023, reference compound]
Efficacy in % found (Phakopsora pachyrhizi; 6.25 ppm a.i.): 24%
Efficacy in % found (Phakopsora pachyrhizi; 12.5 ppm a.i.): 41%
Efficacy in % found (Botrytis cinerea; 25 ppm a.i.): 0%
Efficacy in % found (Botrytis cinerea; 50 ppm a.i.): 0%
Efficacy in % found (Venturia inaequalis; 25 ppm a.i.): 31%
Efficacy in % found (Venturia inaequalis; 50 ppm a.i.): 34%
Efficacy in % found (Alternaria solani; 50 ppm a.i.): 0%

CCC1CC(C)(C)c2cccc(NC(=O)c3cccnc3C(F)F)c21 (centres unmarked) [(I-3), 2-(difluoromethyl)-N-(3-ethyl-1,1-dimethyl-2,3-dihydro-1H-inden-4-yl)nicotinamide]
pest or weed control at 0.5 ppm (Phakopsora pachyrhizi; [1]): 65%
pest or weed control at 1 ppm (Phakopsora pachyrhizi; [1]): 84%
Efficacy in % found (Phytophthora infestans; 5 ppm a.i.): 28%
Efficacy in % found (Phytophthora infestans; 20 ppm a.i.): 4%
Efficacy in % found (Botrytis cinerea; 1 ppm a.i.): 15%
Efficacy in % found (Botrytis cinerea; 2 ppm a.i.): 23%
pest or weed control at 0.25 ppm (Venturia inaequalis; Venturia inaequalis, 240 h): 4%
pest or weed control at 0.5 ppm (Venturia inaequalis; Venturia inaequalis, 240 h): 18%
pest or weed control at 2 ppm (Venturia inaequalis; Venturia inaequalis, 240 h): 11%
Efficacy in % found (Alternaria solani; 0.25 ppm a.i.): 15%
Efficacy in % found (Alternaria solani; 0.5 ppm a.i.): 23%
Efficacy in % found (Alternaria solani; 1 ppm a.i.): 40%
Efficacy in % found (Alternaria solani; 2 ppm a.i.): 35%
Efficacy in % found (Sphaerotheca fuliginea; 0.5 ppm a.i.): 0%
Efficacy in % found (Sphaerotheca fuliginea; 1 ppm a.i.): 0%

CC[C@@H]1CC(C)(C)c2cccc(NC(=O)c3cccnc3C(F)F)c21 [(I-4), 2-(difluoromethyl)-N-[(3R)-3-ethyl-1,1-dimethyl-2,3-dihydro-1H-inden-4-yl]nicotinamide]
pest or weed control at 0.25 ppm (Phakopsora pachyrhizi; [1]): 65%
pest or weed control at 0.5 ppm (Phakopsora pachyrhizi; [1]): 85%
Efficacy in % found (Phytophthora infestans; 10 ppm a.i.): 10%
Efficacy in % found (Phytophthora infestans; 20 ppm a.i.): 7%
Efficacy in % found (Botrytis cinerea; 0.25 ppm a.i.): 0%
Efficacy in % found (Botrytis cinerea; 0.5 ppm a.i.): 8%
pest or weed control at 0.25 ppm (Venturia inaequalis; Venturia inaequalis, 240 h): 15%
Efficacy in % found (Alternaria solani; 0.25 ppm a.i.): 8%
Efficacy in % found (Alternaria solani; 0.5 ppm a.i.): 40%
Efficacy in % found (Alternaria solani; 1 ppm a.i.): 30% and 55%
Efficacy in % found (Alternaria solani; 2 ppm a.i.): 35%

CCCC1CC(C)(C)c2cccc(NC(=O)c3cccnc3C(F)F)c21 (centres unmarked) [(I-5), 2-(difluoromethyl)-N-(1,1-dimethyl-3-propyl-2,3-dihydro-1H-inden-4-yl)nicotinamide]
pest or weed control at 0.25 ppm (Phakopsora pachyrhizi; [1]): 60%
Efficacy in % found (Phytophthora infestans; 5 ppm a.i.): 17%
Efficacy in % found (Phytophthora infestans; 10 ppm a.i.): 0%
Efficacy in % found (Phytophthora infestans; 20 ppm a.i.): 4%
Efficacy in % found (Botrytis cinerea; 0.25 ppm a.i.): 0%
Efficacy in % found (Botrytis cinerea; 0.5 ppm a.i.): 0%
pest or weed control at 0.25 ppm (Venturia inaequalis; Venturia inaequalis, 240 h): 8%
pest or weed control at 0.5 ppm (Venturia inaequalis; Venturia inaequalis, 240 h): 0%
pest or weed control at 2 ppm (Venturia inaequalis; Venturia inaequalis, 240 h): 0%
Efficacy in % found (Alternaria solani; 1 ppm a.i.): 0%
Efficacy in % found (Alternaria solani; 2 ppm a.i.): 8%

propineb [5.029, reference compound]
Efficacy in % found (Phakopsora pachyrhizi; 6.25 ppm a.i.): 0%
Efficacy in % found (Phakopsora pachyrhizi; 12.5 ppm a.i.): 0%
Efficacy in % found (Botrytis cinerea; 25 ppm a.i.): 0%
Efficacy in % found (Venturia inaequalis; 12.5 ppm a.i.): 11%
Efficacy in % found (Venturia inaequalis; 25 ppm a.i.): 94%
Efficacy in % found (Alternaria solani; 50 ppm a.i.): 0%

CC1(C)N=C(c2cnc3ccccc3c2)c2ccccc2C1(F)F [15.090, 3-(4,4-difluoro-3,3-dimethyl-3,4-dihydroisoquinolin-1-yl)quinoline]
pest or weed control at 0.25 ppm (Phakopsora pachyrhizi; [1]): 0%
pest or weed control at 0.5 ppm (Phakopsora pachyrhizi; [1]): 0%
pest or weed control at 1 ppm (Phakopsora pachyrhizi; [1]): 0%
Efficacy in % found (Botrytis cinerea; 0.25 ppm a.i.): 0%
Efficacy in % found (Botrytis cinerea; 0.5 ppm a.i.): 0%
Efficacy in % found (Botrytis cinerea; 1 ppm a.i.): 28%
pest or weed control at 0.25 ppm (Venturia inaequalis; Venturia inaequalis, 240 h): 19%

O=[N+]([O-])c1cc(C(F)(F)F)c(Cl)c([N+](=O)[O-])c1Nc1ncc(C(F)(F)F)cc1Cl [14.004, fluazinam, reference compound]
pest or weed control at 5 ppm (Phakopsora pachyrhizi; Phakopsora pachyrhizi, 168 h, 5 ppm a.i., read-out: Efficacy in % found): 0%
Efficacy in % found (Phytophthora infestans; 10 ppm a.i.): 45%
Efficacy in % found (Phytophthora infestans; 20 ppm a.i.): 28%
Efficacy in % found (Botrytis cinerea; 5 ppm a.i.): 63%
pest or weed control at 10 ppm (Venturia inaequalis; Venturia inaequalis, 240 h): 0%
Efficacy in % found (Alternaria solani; 10 ppm a.i.): 0%

O[C@@H](c1cccnc1)c1c(-c2ccc(Cl)cc2F)noc1-c1ccc(F)cc1F [1.104, (S)-[3-(4-chloro-2-fluorophenyl)-5-(2,4-difluorophenyl)-1,2-oxazol-4-yl](pyridin-3-yl)methanol]
pest or weed control at 0.25 ppm (Phakopsora pachyrhizi; [1]): 0%
pest or weed control at 1 ppm (Phakopsora pachyrhizi; [1]): 0%
Efficacy in % found (Botrytis cinerea; 0.5 ppm a.i.): 15%
Efficacy in % found (Botrytis cinerea; 1 ppm a.i.): 26%
pest or weed control at 0.25 ppm (Venturia inaequalis; Venturia inaequalis, 240 h): 0%
pest or weed control at 0.5 ppm (Venturia inaequalis; Venturia inaequalis, 240 h): 11%
pest or weed control at 1 ppm (Venturia inaequalis; Venturia inaequalis, 240 h): 19%
Efficacy in % found (Alternaria solani; 0.25 ppm a.i.): 0%
Efficacy in % found (Alternaria solani; 0.5 ppm a.i.): 0%
Efficacy in % found (Alternaria solani; 1 ppm a.i.): 0%
Efficacy in % found (Sphaerotheca fuliginea; 0.25 ppm a.i.): 0%
Efficacy in % found (Sphaerotheca fuliginea; 1 ppm a.i.): 0%

CC(O)(Cn1cncn1)c1ccc(Oc2ccc(Cl)cc2)cc1C(F)(F)F (centres unmarked) [1.084, 2-[4-(4-chlorophenoxy)-2-(trifluoromethyl)phenyl]-1-(1H-1,2,4-triazol-1-yl)propan-2-ol]
pest or weed control at 0.5 ppm (Phakopsora pachyrhizi; [1]): 8%
pest or weed control at 1 ppm (Phakopsora pachyrhizi; [1]): 0%
pest or weed control at 0.25 ppm (Venturia inaequalis; Venturia inaequalis, 240 h): 11%
pest or weed control at 0.5 ppm (Venturia inaequalis; Venturia inaequalis, 240 h): 34%
pest or weed control at 1 ppm (Venturia inaequalis; Venturia inaequalis, 240 h): 31%
Efficacy in % found (Alternaria solani; 0.25 ppm a.i.): 8%
Efficacy in % found (Alternaria solani; 0.5 ppm a.i.): 8% and 0%
Efficacy in % found (Alternaria solani; 1 ppm a.i.): 15%
Efficacy in % found (Sphaerotheca fuliginea; 0.5 ppm a.i.): 0%

N#Cc1c(Cl)c(Cl)c(Cl)c(C#N)c1Cl [5.004, chlorothalonil, reference compound]
pest or weed control at 6.25 ppm (Phakopsora pachyrhizi; Phakopsora pachyrhizi, 168 h, 6.25 ppm a.i., read-out: Efficacy in % found): 18%
pest or weed control at 12.5 ppm (Phakopsora pachyrhizi; Phakopsora pachyrhizi, 168 h, 12.5 ppm a.i., read-out: Efficacy in % found): 0%
pest or weed control at 25 ppm (Venturia inaequalis; Venturia inaequalis, 240 h, read-out: Efficacy in % found, 25 ppm a.i., apples, 10 days after inoculation): 36%
Efficacy in % found (Alternaria solani; 50 ppm a.i.): 0%

CCC[C@@H]1CC(C)(C)c2cccc(NC(=O)c3cccnc3C(F)F)c21 [(I-6), 2-(difluoromethyl)-N-[(3R)-1,1-dimethyl-3-propyl-2,3-dihydro-1H-inden-4-yl]nicotinamide]
pest or weed control at 0.25 ppm (Phakopsora pachyrhizi; [1]): 75%
Efficacy in % found (Phytophthora infestans; 5 ppm a.i.): 21%
Efficacy in % found (Phytophthora infestans; 10 ppm a.i.): 14%
Efficacy in % found (Phytophthora infestans; 20 ppm a.i.): 8%
Efficacy in % found (Botrytis cinerea; 0.25 ppm a.i.): 15%
Efficacy in % found (Botrytis cinerea; 0.5 ppm a.i.): 0%
Efficacy in % found (Botrytis cinerea; 1 ppm a.i.): 19% and 11%
pest or weed control at 0.5 ppm (Venturia inaequalis; Venturia inaequalis, 240 h): 0%
pest or weed control at 2 ppm (Venturia inaequalis; Venturia inaequalis, 240 h): 15%
Efficacy in % found (Alternaria solani; 0.25 ppm a.i.): 0%
Efficacy in % found (Alternaria solani; 0.5 ppm a.i.): 0%
Efficacy in % found (Alternaria solani; 1 ppm a.i.): 8% and 15%
Efficacy in % found (Alternaria solani; 2 ppm a.i.): 51%
